Assay results reported in patent US10221163B2 (priority 2015, dated 2019).
Where two headings read alike, the source gives them in different places.

Legend:
IMP-1 = IMP-1 (Serratia marcescens, UniProt P52699); assay: biochemical; assay type: biochemical; conditions: fluorescence assay, CCF2-FA substrate, 2 pM enzyme, 2 hours at 25° C.; read-out: IMP-1 IC50
Method in brief: (§1)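 Fluorescence assay of metallo-β-lactamase activity using CCF2-FA, a cephalosporin-linked 7-hydroxycoumarin–fluorescein substrate. Inhibitor, enzyme and substrate were incubated together for 2 hours at 25° C. IC50 came from a 4-parameter fit of inhibition versus inhibitor concentration.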

NDM-1 = NDM-1 (Klebsiella pneumoniae, UniProt C7C422); assay: biochemical; assay type: biochemical; conditions: fluorescence assay, CCF2-FA substrate, 1 pM enzyme, 2 hours at 25° C.; read-out: NDM-1 IC50
Method in brief: as §1

VIM-1 = VIM-1 (Pseudomonas aeruginosa (strain ATCC 15692 / DSM 22644 / CIP 104116 / JCM 14847 / LMG 12228 / 1C / PRS 101 / PAO1), UniProt A0A0F7KYQ8); assay: biochemical; conditions: CCF2-FA substrate, 30 pM enzyme, 2 hours at 25° C.
Method in brief: as §1

[1] = tested on: Escherichia coli expressing NDM-1 (CLB30005, CLB30016); assay type: cell-based; conditions: with imipenem 1 μg/ml; 95% inhibition of bacterial growth
Method in brief: (§2)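 Growth by absorbance after 22–24 h at 35°C defined the read-out, with imipenem fixed at 1 μg/ml alongside compound. Inocula came from overnight blood-agar colonies at 35°C, resuspended in saline and diluted 1:100 in 1.1×CAMHB.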

[2] = tested on: Klebsiella pneumoniae expressing VIM-1 (IHMA599644); assay type: cell-based; conditions: with imipenem 1 μg/ml; 95% inhibition of bacterial growth
Method in brief: as §2

[3] = tested on: Serratia marcescens expressing IMP-1 (CL5741); assay type: cell-based; conditions: with imipenem 1 μg/ml; 95% inhibition of bacterial growth
Method in brief: as §2

[4] = tested on: Pseudomonas aeruginosa efflux+ (MB9798), IMP-1; assay type: cell-based; conditions: concentration restoring susceptibility to imipenem at 2 μg/mL in the presence of a class A, C, D serine β-lactamase inhibitor closely related to relebactam
Method in brief: (§3)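 P. aeruginosa PAO1-derived IMP-1 strains, efflux+ MB9798 and efflux− MB9799, tested by standard microbroth MIC with imipenem and/or ceftazidime fixed, usually at CLSI breakpoint, plus fixed class A/C β-lactamase inhibitor against AmpC. Inhibitor titrated; concentration restoring susceptibility recorded; MB9798/MB9799 fold difference indicates efflux.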

[5] = tested on: Pseudomonas aeruginosa efflux− (MB9799), IMP-1; assay type: cell-based; conditions: concentration restoring susceptibility to imipenem at 2 μg/mL in the presence of a class A, C, D serine β-lactamase inhibitor closely related to relebactam
Method in brief: as §3

[6] = tested on: Pseudomonas aeruginosa MB9798 vs MB9799; conditions: ratio MITC95 PA_9798/MITC95 PA_9799
Method in brief: as §3

[7] = fluorescence assay, read-out: VIM-1 IC50

Chain of IMP-1 (P52699 whole entry, looked up, species assumed): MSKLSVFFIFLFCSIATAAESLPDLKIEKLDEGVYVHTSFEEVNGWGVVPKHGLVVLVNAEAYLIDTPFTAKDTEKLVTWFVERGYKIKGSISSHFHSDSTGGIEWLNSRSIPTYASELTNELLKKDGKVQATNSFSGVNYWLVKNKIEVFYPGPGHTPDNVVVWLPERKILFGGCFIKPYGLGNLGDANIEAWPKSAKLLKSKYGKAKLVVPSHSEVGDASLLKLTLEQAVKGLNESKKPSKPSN
Chain of NDM-1 (C7C422 whole entry, looked up, species assumed): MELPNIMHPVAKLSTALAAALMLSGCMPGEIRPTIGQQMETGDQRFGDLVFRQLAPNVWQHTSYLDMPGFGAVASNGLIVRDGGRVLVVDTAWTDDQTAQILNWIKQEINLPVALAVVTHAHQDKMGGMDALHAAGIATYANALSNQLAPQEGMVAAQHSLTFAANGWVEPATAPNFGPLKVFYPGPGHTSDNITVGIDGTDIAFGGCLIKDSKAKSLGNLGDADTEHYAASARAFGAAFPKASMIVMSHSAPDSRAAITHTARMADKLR

NCCNS(=O)(=O)c1ccc(-c2cccc(-c3n[nH]c(N)n3)c2)c(-c2nn[nH]n2)c1S(N)(=O)=O [Example 228, 3′-(5-amino-1H-1,2,4-triazol-3-yl)-N4-(2-aminoethyl)-2-(2H-tetrazol-5-yl)-[1,1′-biphenyl]-3,4-disulfonamide]
IC50 (IMP-1): 562 pM
IC50 (NDM-1): 86.4 pM
IC50 (VIM-1; [7]): 150 pM
Escherichia coli expressing NDM-1 (CLB30016) MITC95 [1]: 0.7813 µM
Klebsiella pneumoniae expressing VIM-1 (IHMA599644) MITC95 [2]: 3.125 µM
Serratia marcescens expressing IMP-1 (CL5741) MITC95 [3]: 1.563 µM
P. aeruginosa expressing IMP-1, efflux + (MB9798) MITC95 [4]: 1.563 µM
P. aeruginosa expressing IMP-1, efflux − (MB9799) MITC95 [5]: 1.563 µM
Efflux ratio [6]: 1.00

NCC(CN)NS(=O)(=O)c1ccc(-c2cccc(C3N=NC(N)=N3)c2)c(-c2nn[nH]n2)c1S(N)(=O)=O (stereo not drawn) [Example 229, 3′-(5-amino-3H-1,2,4-triazol-3-yl)-N4-(1,3-diaminopropan-2-yl)-2-(2H-tetrazol-5-yl)-[1,1′-biphenyl]-3,4-disulfonamide]
IC50 (IMP-1): 173 pM
IC50 (NDM-1): 30.8 pM
IC50 (VIM-1; [7]): 120 pM
Escherichia coli expressing NDM-1 (CLB30016) MITC95 [1]: 0.7813 µM
Klebsiella pneumoniae expressing VIM-1 (IHMA599644) MITC95 [2]: 3.125 µM
Serratia marcescens expressing IMP-1 (CL5741) MITC95 [3]: 3.125 µM
P. aeruginosa expressing IMP-1, efflux + (MB9798) MITC95 [4]: 1.563 µM
P. aeruginosa expressing IMP-1, efflux − (MB9799) MITC95 [5]: 3.125 µM
Efflux ratio [6]: 0.50

NC[C@@H](N)CNS(=O)(=O)c1ccc(-c2cccc(-c3n[nH]c(N)n3)c2)c(-c2nn[nH]n2)c1S(N)(=O)=O [Example 230, (R)-3′-(5-amino-1H-1,2,4-triazol-3-yl)-N4-(2,3-diaminopropyl)-2-(2H-tetrazol-5-yl)-[1,1′-biphenyl]-3,4-disulfonamide]
IC50 (IMP-1): 357 pM
IC50 (NDM-1): 59.3 pM
IC50 (VIM-1; [7]): 199 pM
Escherichia coli expressing NDM-1 (CLB30016) MITC95 [1]: 1.563 µM
Klebsiella pneumoniae expressing VIM-1 (IHMA599644) MITC95 [2]: 3.125 µM
Serratia marcescens expressing IMP-1 (CL5741) MITC95 [3]: 1.563 µM
P. aeruginosa expressing IMP-1, efflux + (MB9798) MITC95 [4]: 1.563 µM
P. aeruginosa expressing IMP-1, efflux − (MB9799) MITC95 [5]: 1.563 µM
Efflux ratio [6]: 1.00

Nc1nc(-c2cccc(-c3ccc(S(=O)(=O)N[C@@H]4CCNC4)c(S(N)(=O)=O)c3-c3nn[nH]n3)c2)n[nH]1 [Example 231, (R)-3′-(5-amino-1H-1,2,4-triazol-3-yl)-N4-(pyrrolidin-3-yl)-2-(2H-tetrazol-5-yl)-[1,1′-biphenyl]-3,4-disulfonamide]
IC50 (IMP-1): 376 pM
IC50 (NDM-1): 28.8 pM
IC50 (VIM-1; [7]): 114 pM
Escherichia coli expressing NDM-1 (CLB30016) MITC95 [1]: 1.563 µM
Klebsiella pneumoniae expressing VIM-1 (IHMA599644) MITC95 [2]: 3.125 µM
Serratia marcescens expressing IMP-1 (CL5741) MITC95 [3]: 1.563 µM
P. aeruginosa expressing IMP-1, efflux + (MB9798) MITC95 [4]: 1.563 µM
P. aeruginosa expressing IMP-1, efflux − (MB9799) MITC95 [5]: 1.563 µM
Efflux ratio [6]: 1.00

CN1CC[C@@H](NS(=O)(=O)c2ccc(-c3cccc4[nH]c(N)nc34)c(-c3nn[nH]n3)c2S(N)(=O)=O)C1 [Example 232, (R)-4-(2-amino-1H-benzo[d]imidazol-4-yl)-N^1-(1-methylpyrrolidin-3-yl)-3-(2H-tetrazol-5-yl)benzene-1,2-disulfonamide]
IC50 (IMP-1): 609 pM
IC50 (NDM-1): 50.5 pM
IC50 (VIM-1; VIM-1 IC50, fluorescence assay): 160 pM
Escherichia coli expressing NDM-1 (CLB30016) MITC95 [1]: 0.3906 µM
Klebsiella pneumoniae expressing VIM-1 (IHMA599644) MITC95 [2]: 1.563 µM
Serratia marcescens expressing IMP-1 (CL5741) MITC95 [3]: 0.7813 µM
P. aeruginosa expressing IMP-1, efflux + (MB9798) MITC95 [4]: 1.563 µM
P. aeruginosa expressing IMP-1, efflux − (MB9799) MITC95 [5]: 0.7813 µM
Efflux ratio [6]: 2.00

Nc1nc2c(-c3ccc(S(=O)(=O)N[C@@H]4CCNC4)c(S(N)(=O)=O)c3-c3nn[nH]n3)cc(I)cc2[nH]1 [Example 234, (R)-4-(2-amino-6-iodo-1H-benzo[d]imidazol-4-yl)-N^1-(pyrrolidin-3-yl)-3-(2H-tetrazol-5-yl)benzene-1,2-disulfonamide]
IC50 (IMP-1): 140 pM
IC50 (NDM-1): 15.7 pM
IC50 (VIM-1; [7]): 82.9 pM
Escherichia coli expressing NDM-1 (CLB30016) MITC95 [1]: 0.7813 µM
Klebsiella pneumoniae expressing VIM-1 (IHMA599644) MITC95 [2]: 0.7813 µM
Serratia marcescens expressing IMP-1 (CL5741) MITC95 [3]: 0.7813 µM
P. aeruginosa expressing IMP-1, efflux + (MB9798) MITC95 [4]: 0.7813 µM
P. aeruginosa expressing IMP-1, efflux − (MB9799) MITC95 [5]: 0.7813 µM
Efflux ratio [6]: 1.00

NS(=O)(=O)c1c(S(=O)(=O)N[C@@H]2CCNC2)ccc(-c2cccc3[nH]nnc23)c1-c1nn[nH]n1 [Example 235, (R)-4-(1H-benzo[d][1,2,3]triazol-4-yl)-N^1-(pyrrolidin-3-yl)-3-(2H-tetrazol-5-yl)benzene-1,2-disulfonamide]
IC50 (IMP-1): 440 pM
IC50 (NDM-1): 30.8 pM
IC50 (VIM-1; VIM-1 IC50, fluorescence assay): 105 pM
Escherichia coli expressing NDM-1 (CLB30016) MITC95 [1]: 1.563 µM
Klebsiella pneumoniae expressing VIM-1 (IHMA599644) MITC95 [2]: 3.125 µM
Serratia marcescens expressing IMP-1 (CL5741) MITC95 [3]: 0.7813 µM
P. aeruginosa expressing IMP-1, efflux + (MB9798) MITC95 [4]: 0.7813 µM
P. aeruginosa expressing IMP-1, efflux − (MB9799) MITC95 [5]: 1.563 µM
Efflux ratio [6]: 0.50

NCCNS(=O)(=O)c1ccc(-c2cccc3[nH]nnc23)c(-c2nn[nH]n2)c1S(N)(=O)=O [Example 236]
IC50 (IMP-1): 544 pM
IC50 (NDM-1): 64.7 pM
IC50 (VIM-1; [7]): 130 pM
Escherichia coli expressing NDM-1 (CLB30016) MITC95 [1]: 3.125 µM
Klebsiella pneumoniae expressing VIM-1 (IHMA599644) MITC95 [2]: 1.563 µM
Serratia marcescens expressing IMP-1 (CL5741) MITC95 [3]: 0.7813 µM
P. aeruginosa expressing IMP-1, efflux + (MB9798) MITC95 [4]: 0.7813 µM
P. aeruginosa expressing IMP-1, efflux − (MB9799) MITC95 [5]: 0.7813 µM
Efflux ratio [6]: 1.00

C[C@H](CN)NS(=O)(=O)c1ccc(-c2cccc3[nH]nnc23)c(-c2nn[nH]n2)c1S(N)(=O)=O [Example 237]
IC50 (IMP-1): 120 pM
IC50 (NDM-1): 13.4 pM
IC50 (VIM-1; [7]): 55.2 pM
Escherichia coli expressing NDM-1 (CLB30016) MITC95 [1]: 3.125 µM
Klebsiella pneumoniae expressing VIM-1 (IHMA599644) MITC95 [2]: 1.563 µM
Serratia marcescens expressing IMP-1 (CL5741) MITC95 [3]: 1.563 µM
P. aeruginosa expressing IMP-1, efflux + (MB9798) MITC95 [4]: 0.7813 µM
P. aeruginosa expressing IMP-1, efflux − (MB9799) MITC95 [5]: 1.563 µM
Efflux ratio [6]: 0.50

NS(=O)(=O)c1c(S(=O)(=O)N[C@@H]2CCNC2)ccc(-c2cccc3nonc23)c1-c1nn[nH]n1 [Example 238]
IC50 (IMP-1): 800 pM
IC50 (NDM-1): 111 pM
IC50 (VIM-1; [7]): 65.3 pM
Escherichia coli expressing NDM-1 (CLB30016) MITC95 [1]: 1.563 µM
Klebsiella pneumoniae expressing VIM-1 (IHMA599644) MITC95 [2]: 1.563 µM
Serratia marcescens expressing IMP-1 (CL5741) MITC95 [3]: 0.7813 µM
P. aeruginosa expressing IMP-1, efflux + (MB9798) MITC95 [4]: 3.125 µM
P. aeruginosa expressing IMP-1, efflux − (MB9799) MITC95 [5]: 0.7813 µM
Efflux ratio [6]: 4.00

NCCNS(=O)(=O)c1ccc(-c2cccc3nonc23)c(-c2nn[nH]n2)c1S(N)(=O)=O [Example 239]
IC50 (IMP-1): 1060 pM
IC50 (NDM-1): 439 pM
IC50 (VIM-1; [7]): 113 pM
Escherichia coli expressing NDM-1 (CLB30016) MITC95 [1]: 0.7813 µM
Klebsiella pneumoniae expressing VIM-1 (IHMA599644) MITC95 [2]: 3.125 µM
Serratia marcescens expressing IMP-1 (CL5741) MITC95 [3]: 1.563 µM
P. aeruginosa expressing IMP-1, efflux + (MB9798) MITC95 [4]: 6.25 µM
P. aeruginosa expressing IMP-1, efflux − (MB9799) MITC95 [5]: 0.7813 µM
Efflux ratio [6]: 8.00

Nc1nc2c(-c3ccc(S(=O)(=O)N[C@@H]4CNC[C@@H]4N)c(S(N)(=O)=O)c3-c3nn[nH]n3)cccc2[nH]1 [Example 240]
IC50 (IMP-1): 745 pM
IC50 (NDM-1): 56.9 pM
IC50 (VIM-1; VIM-1 IC50, fluorescence assay): 169 pM
Escherichia coli expressing NDM-1 (CLB30016) MITC95 [1]: 0.1953 µM
Klebsiella pneumoniae expressing VIM-1 (IHMA599644) MITC95 [2]: 1.563 µM
Serratia marcescens expressing IMP-1 (CL5741) MITC95 [3]: 0.7813 µM
P. aeruginosa expressing IMP-1, efflux + (MB9798) MITC95 [4]: 0.7813 µM
P. aeruginosa expressing IMP-1, efflux − (MB9799) MITC95 [5]: 0.7813 µM
Efflux ratio [6]: 1.00
